# Results reported in US20170044104A1, “NEW PESTICIDAL COMPOUNDS AND USES” (BAYER CROPSCIENCE AG, priority 2013, published 2017).
# Experiments:
# [1] = tested on: Cooperia curticei; assay: Cooperia curticei (COOPCU) larval mortality assay; conditions: 120 h, after 5 days, read-out: activity (percentage of larval mortality); for mortality at 20 ppm: application rate 20 ppm; for mortality at 4 ppm: application rate 4 ppm
# Procedure: (§1) Solvent: dimethyl sulfoxide
# (§2) To produce a suitable preparation of active compound, 10 mg of active compound are dissolved in 0.5 ml solvent, and the concentrate is diluted with “Ringer's solution” to the desired concentration.
# Approximately 40 nematode larvae (Cooperia curticei) are transferred into a test tube containing the compound solution.
# After 5 days percentage of larval mortality is recorded. 100% efficacy means all larvae are killed; 0% efficacy means no larvae are killed.
# [2] = tested on: Haemonchus contortus; assay: Haemonchus contortus (HAEMCO) larval mortality assay; conditions: 120 h; for mortality at 20 ppm: application rate 20 ppm; for mortality at 20 ppm / mortality at 4 ppm: after 5 days, read-out: activity (percentage of larval mortality); for Emax at 0.8 ppm / Emax at 4 ppm / Emax at 20 ppm: comparative test, 5 dat, read-out: % Efficacy; for mortality at 4 ppm: application rate 4 ppm
# Procedure: as §1, §2
# Approximately 40 larvae of the red stomach worm (Haemonchus contortus) are transferred into a test tube containing compound solution.
# After 5 days percentage of larval mortality are recorded. 100% efficacy means all larvae are killed, 0% efficacy means no larvae are killed.
# [3] = tested on: Meloidogyne incognita; assay: Meloidogyne incognita (MELGIN) gall formation assay; assay type: in vivo; conditions: 336 h, application rate 20 ppm, after 14 days, salad seedlings, read-out: nematicidal activity (percentage of gall formation)
# Procedure: Solvent: 125.0 parts by weight of acetone
# To produce a suitable preparation of active compound, 1 part by weight of active compound is mixed with the stated amount of solvent, and the concentrate is diluted with water to the desired concentration.
# Vessels are filled with sand, a solution of the active ingredient, a suspension containing eggs and larvae of the southern root-knot nematode (Meloidogyne incognita) and salad seeds. The salad seeds germinate and the seedlings grow. Galls develop in the roots.
# After 14 days the nematicidal activity is determined on the basis of the percentage of gall formation. 100% means no galls were found and 0% means the number of galls found on the roots of the treated plants was equal to that in untreated control plants.
# [4] = tested on: Nippostrongylus brasiliensis; assay: Nippostrongylus brasiliensis (NIPOBR) assay, acetylcholine esterase readout; conditions: 10 ppm (10 μg/ml), adult worms, read-out: activity (reduction of AChE compared to negative control)
# Procedure: Adult Nippostrongylus brasiliensis were washed with saline buffer containing 100 U/ml penicillin, 0.1 mg/ml streptomycin and 2.5 μg/ml amphotericin B. Test compounds were dissolved in DMSO and worms were incubated in medium in a final concentration of 10 μg/ml (10 ppm). An aliquot of the medium was used to determine the acetylcholine esterase activity in comparison to a negative control. The principle of measuring acetylcholine esterase as readout for anthelmintic activity was described in Rapson et al (1986) and Rapson et al (1987).
SMILES,mortality at 20 ppm [1] [%],mortality at 20 ppm [2] [%],pest or weed control at 20 ppm [3] [%],further results
O=C(NCC(F)(F)c1ccc(-c2ccc(C(F)(F)F)nc2)cc1Cl)c1ccccc1C(F)(F)F [Example 1-94],100,100,100,–
"CC(F)(CNC(=O)c1ccccc1C(F)(F)F)c1ccc(-c2ccc(F)nc2)cc1Cl (stereo not shown) [Example 1-130, N-{2-[2-chloro-4-(6-fluoropyridin-3-yl)phenyl]-2-fluoropropyl}-2-(trifluoromethyl) benzamide]",–,–,100,–
O=C(NCCc1ccc(-c2ccc(F)nc2)cc1)c1ccccc1C(F)(F)F [Example 1-62],100,100,–,Emax at 0.8 ppm [2]: 80%; Emax at 4 ppm [2]: 90%; Emax at 20 ppm [2]: 100%
O=C(NCCc1ccc(-c2cccc(Cl)n2)cc1Cl)c1ccccc1C(F)(F)F [Example 1-41],100,90,–,–
O=C(NCCc1ccc(-c2ccc(C(F)(F)F)nc2)cc1)c1ccccc1C(F)(F)F [Example 1-12],100,90,–,–
O=C(NCCc1ccc(-c2ccc(Cl)nc2)cc1Cl)c1ccccc1C(F)(F)F [Example 1-66],100,100,90,–
O=C(NCCc1ccc(-c2ccc(C(F)(F)F)nc2)cc1Cl)c1ccccc1C(F)(F)F [Example 1-38],100,100,–,Emax at 0.8 ppm [2]: 100%; Emax at 4 ppm [2]: 100%; Emax at 20 ppm [2]: 100%
O=C(NCCc1ccc(-c2ccc(OCC(F)(F)F)nc2)cc1Cl)c1ccccc1C(F)(F)F [Example 1-32],100,90,–,–
Cc1cc(-c2ccc(F)nc2)ccc1C(F)(F)CNC(=O)c1ccccc1C(F)(F)F [Example 1-136],–,–,90,–
O=C(NCCc1ccc(-c2cncc(F)c2)cc1)c1ccccc1C(F)(F)F [Example 1-14],100,90,–,–
Cn1cc(-c2ccc(CCNC(=O)c3ccccc3C(F)(F)F)c(Cl)c2)cn1 [Example 1-47],100,100,100,Emax at 0.8 ppm [2]: 80%; Emax at 4 ppm [2]: 100%; Emax at 20 ppm [2]: 100%
O=C(NCCc1ccc(-c2ccnc(Cl)c2)cc1)c1ccccc1C(F)(F)F [Example 1-64],100,80,–,–
O=C(NCC(F)c1ccc(-c2ccnc(F)c2)cc1Cl)c1cccnc1C(F)(F)F (stereo not shown) [Example 1-81],100,100,100,–
O=C(NCCc1ccc(-c2cccnc2Cl)cc1)c1ccccc1C(F)(F)F [Example 1-56],80,80,–,–
Cn1cc(-c2ccc(CCNC(=O)c3cccnc3C(F)(F)F)cc2)cn1 [Example 1-24],90,–,90,–
O=C(NCC(F)(F)c1ccc(-c2ccc(F)nc2)cc1C(F)(F)F)c1ccccc1C(F)(F)F [Example 1-128],100,100,100,–
O=C(NCCc1ccc(-c2ccccn2)cc1Cl)c1ccccc1C(F)(F)F [Example 1-39],100,100,100,–
O=C(NCC(F)c1ccc(-c2ccc(C(F)(F)F)nc2)cc1Cl)c1cccnc1C(F)(F)F (stereo not shown) [Example 1-71],100,90,–,–
O=C(NCC(F)(F)c1ccc(-c2ccc(Cl)nc2)cc1Cl)c1cccnc1C(F)(F)F [Example 1-67],–,90,–,mortality at 4 ppm [1]: 90%
O=C(NCCc1ccc(-c2ccoc2)cc1Cl)c1ccccc1C(F)(F)F [Example 1-35],100,100,–,Emax at 0.8 ppm [2]: 80%; Emax at 4 ppm [2]: 90%; Emax at 20 ppm [2]: 100%
O=C(NCC(F)(F)c1ccc(-c2ccc(F)nc2)cc1Cl)c1cccnc1C(F)(F)F [Example 1-104],–,90,100,mortality at 4 ppm [1]: 100%
O=C(NCCc1ccc(-c2ccc(Cl)nc2)cc1)c1ccccc1C(F)(F)F [Example 1-15],100,–,–,mortality at 4 ppm [2]: 90%
O=C(NCC(F)(F)c1ccc(-c2cncc(Cl)c2)cc1C(F)(F)F)c1ccccc1C(F)(F)F [Example 1-120],100,100,100,–

SMILES,mortality at 20 ppm [1] [%],mortality at 20 ppm [2] [%],pest or weed control at 20 ppm [3] [%],further results
O=C(NCC(F)(F)c1ccc(-c2cncc(F)c2)cc1C(F)(F)F)c1ccccc1C(F)(F)F [Example 1-122],100,100,–,–
O=C(NCC(F)c1ccc(-c2ccc(Cl)nc2)cc1Cl)c1nccnc1C(F)(F)F (stereo not shown) [Example 1-85],100,100,100,–
O=C(NCC(F)(F)c1ccc(-c2ccc(Cl)nc2)cc1C(F)(F)F)c1ccccc1C(F)(F)F [Example 1-126],100,100,90,–
Cn1cc(-c2ccc(CCNC(=O)c3ccccc3C(F)(F)F)cc2)cn1 [Example 1-60],100,80,–,–
CC(C)Oc1ccc(-c2ccc(CCNC(=O)c3ccccc3C(F)(F)F)c(Cl)c2)cn1 [Example 1-43],100,100,–,Emax at 0.8 ppm [2]: 100%; Emax at 4 ppm [2]: 100%; Emax at 20 ppm [2]: 100%
O=C(NCCc1ccc(-c2ccc(OCC(F)(F)F)nc2)cc1)c1ccccc1C(F)(F)F [Example 1-58],100,80,–,–
CC(F)(CNC(=O)c1cccnc1C(F)(F)F)c1ccc(-c2ccc(F)nc2)cc1Cl (stereo not shown) [Example 1-129],–,–,100,–
O=C(NCCc1ccc(-c2ccc(C(F)(F)F)nc2)cc1)c1cccnc1C(F)(F)F [Example 1-19],100,–,90,–
CC(F)(CNC(=O)c1nccnc1C(F)(F)F)c1ccc(-c2cncc(F)c2)cc1Cl (stereo not shown) [Example 1-102],100,100,–,–
O=C(NCCc1ccc(-c2ccnc(F)c2)cc1)c1cccnc1C(F)(F)F [Example 1-27],80,80,–,–
COc1cncc(-c2ccc(C(F)(F)CNC(=O)c3ccccc3C(F)(F)F)c(C(F)(F)F)c2)c1 [Example 1-121],80,80,–,–
O=C(NCCc1ccc(-c2cncc(Cl)c2)cc1)c1cccnc1C(F)(F)F [Example 1-16],100,80,90,–
O=C(NCC(F)c1ccc(-c2ccc(Cl)nc2)cc1Cl)c1cccnc1C(F)(F)F (stereo not shown) [Example 1-86],100,100,100,–
O=C(NCC(F)c1ccc(-c2cccnc2Cl)cc1Cl)c1cccnc1C(F)(F)F (stereo not shown) [Example 1-80],100,100,90,–
O=C(NCC(F)(F)c1ccc(-c2ccc(F)nc2)cc1C(F)(F)F)c1cccnc1C(F)(F)F [Example 1-140],–,–,90,–
O=C(NCCc1ccc(-c2cncc(F)c2)cc1)c1cccnc1C(F)(F)F [Example 1-20],100,80,90,–
Cc1ncccc1-c1ccc(CCNC(=O)c2ccccc2C(F)(F)F)c(Cl)c1 [Example 1-42],100,100,90,–
O=C(NCC(F)(F)c1ccc(-c2ccc(Cl)nc2)cc1F)c1ccccc1C(F)(F)F [Example 1-114],100,80,–,–
O=C(NCC(F)c1ccc(-c2cccnc2Cl)cc1Cl)c1nccnc1C(F)(F)F (stereo not shown) [Example 1-79],100,100,–,–
O=C(NCC(F)c1ccc(-c2ccc(C(F)(F)F)nc2)cc1Cl)c1nccnc1C(F)(F)F (stereo not shown) [Example 1-72],100,100,–,–
COc1ccc(-c2ccc(C(F)(F)CNC(=O)c3ccccc3C(F)(F)F)c(F)c2)cn1 [Example 1-110],100,90,–,–
O=C(NCC(F)(F)c1ccc(-c2ccc(C(F)(F)F)nc2)cc1C(F)(F)F)c1ccccc1C(F)(F)F [Example 1-124],90,–,–,mortality at 4 ppm [2]: 90%
O=C(NCCc1cccc(-c2ccc(Cl)nc2)c1)c1ccccc1C(F)(F)F [Example 1-9],100,–,–,inhibition at 10 ppm [4]: ≥ 60%
